Measured values published in US9770446B2, “Piperidine urea derivatives” (MERCK PATENT GMBH, priority 2013, dated 2017).

Assays:
Tankyrase = assay: Cellular inhibition of Tankyrase: Axin2 level in DLD1 cells (Luminex); format: cell-based; conditions: 24 hours, Axin2 increase, read-out: EC50 [M] TNKS cellular assay
Method in brief: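 DLD1 colon carcinoma cells treated 24 h with seven-step serial dilutions in triplicate (0.3% DMSO final). Axin2 in cleared lysates captured on anti-Axin2 beads, detected with polyclonal anti-Axin2 plus PE secondary, and quantified by Luminex. EC50 from data normalized to solvent control; IWR-2 (3E-06 M) marks maximal Axin2 increase.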

[1] = biological target: T1, GST-tagged Tnks-1 (1023-1327 aa) (Homo sapiens, UniProt O95271); assay: TNKS1 activity ELISA (autoparsylation assay); format: biochemical
T1 construct: GST-tagged Tnks-1 (1023-1327 aa, prepared in-house); made in house
Method in brief: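 Each GST-tagged enzyme (20 ng/well) was captured overnight at 4 °C on glutathione plates, then auto-ADP-ribosylated with 10 μM biotin-NAD for 1 h at 30 °C, pH 7.7, 0.5% DMSO, compound at 10 concentrations. Streptavidin-HRP chemiluminescence measured the signal. IC50 relative to inhibitor-free reaction, with 5 μM XAV-939 defining zero.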

His-tagged Parp-1 = biological target: T2, His-tagged Parp-1 (Homo sapiens, UniProt P09874); assay: PARP-1 autoparsylation HTRF assay; format: biochemical
T2 construct: purchased Enzo Life Sciences GmbH, Lörrach, Germany
Text: Description of the PARP1 Assay
Biochemical Activity Testing of PARP-1: Autoparsylation Assay
The autoparsylation assay is run in two steps: the enzymatic reaction in which His-tagged Parp-1 transfers biotinylated ADP-ribose/ADP-ribose to itself from biotinylated NAD/NAD as co-substrate and the detection reaction where a time resolved FRET between cryptate labelled anti-His antibody bound to the His tag of the enzyme and Xlent® labelled-streptavidin bound the biotin-parsylation residue is analysed. The autoparsylation activity is detectable directly via the increase in HTRF signal.
The autoparsylation assay is performed as 384-well HTRF® (Cisbio, Codolet, France) assay format in Greiner low volume nb 384-well microtiter plates. 35 nM His-tagged Parp-1 (human, recombinant, Enzo Life Sciences GmbH, Lörrach, Germany) and a mixture of 125 nM bio-NAD (Biolog, Life science Inst., Bremen, Germany) and 800 nM NAD as co-substrate are incubated in a total volume of 6 μl (100 mM Tris/HCl, 4 mM Mg-chloride, 0.01% IGEPAL® CA630, 1 mM DTT, 0.5% DMSO, pH 8, 13 ng/μl activated DNA (BPS Bioscience, San Diego, US)) in the absence or presence of the test compound (10 dilution concentrations) for 150 min at 23° C. The reaction is stopped by the addition of 4 μl of the Stop/detection solution (70 nM SA-Xlent® (Cisbio, Codolet, France), 2.5 nM Anti-His-K® (Eu-labelled anti-His, Cisbio, Codolet, France) in 50 mM HEPES, 400 mM KF, 0.1% BSA, 20 mM EDTA, pH 7.0). After 1 h incubation at room temperature the HTRF iss measured with an Envision multimode reader (Perkin Elmer LAS Germany GmbH) at excitation wavelength 340 nm (laser mode) and emission wavelengths 615 nm and 665 nm. The ratio of the emission signals is determined. The full value used is the inhibitor-free reaction. The pharmacological zero value used is Olaparib (LClabs, Woburn, US) in a final concentration of 1 μM. The inhibitory values (IC50) are determined using either the program Symyx Assay Explorer® or Condosseo® from GeneData.

T2 sequence (P09874 whole entry): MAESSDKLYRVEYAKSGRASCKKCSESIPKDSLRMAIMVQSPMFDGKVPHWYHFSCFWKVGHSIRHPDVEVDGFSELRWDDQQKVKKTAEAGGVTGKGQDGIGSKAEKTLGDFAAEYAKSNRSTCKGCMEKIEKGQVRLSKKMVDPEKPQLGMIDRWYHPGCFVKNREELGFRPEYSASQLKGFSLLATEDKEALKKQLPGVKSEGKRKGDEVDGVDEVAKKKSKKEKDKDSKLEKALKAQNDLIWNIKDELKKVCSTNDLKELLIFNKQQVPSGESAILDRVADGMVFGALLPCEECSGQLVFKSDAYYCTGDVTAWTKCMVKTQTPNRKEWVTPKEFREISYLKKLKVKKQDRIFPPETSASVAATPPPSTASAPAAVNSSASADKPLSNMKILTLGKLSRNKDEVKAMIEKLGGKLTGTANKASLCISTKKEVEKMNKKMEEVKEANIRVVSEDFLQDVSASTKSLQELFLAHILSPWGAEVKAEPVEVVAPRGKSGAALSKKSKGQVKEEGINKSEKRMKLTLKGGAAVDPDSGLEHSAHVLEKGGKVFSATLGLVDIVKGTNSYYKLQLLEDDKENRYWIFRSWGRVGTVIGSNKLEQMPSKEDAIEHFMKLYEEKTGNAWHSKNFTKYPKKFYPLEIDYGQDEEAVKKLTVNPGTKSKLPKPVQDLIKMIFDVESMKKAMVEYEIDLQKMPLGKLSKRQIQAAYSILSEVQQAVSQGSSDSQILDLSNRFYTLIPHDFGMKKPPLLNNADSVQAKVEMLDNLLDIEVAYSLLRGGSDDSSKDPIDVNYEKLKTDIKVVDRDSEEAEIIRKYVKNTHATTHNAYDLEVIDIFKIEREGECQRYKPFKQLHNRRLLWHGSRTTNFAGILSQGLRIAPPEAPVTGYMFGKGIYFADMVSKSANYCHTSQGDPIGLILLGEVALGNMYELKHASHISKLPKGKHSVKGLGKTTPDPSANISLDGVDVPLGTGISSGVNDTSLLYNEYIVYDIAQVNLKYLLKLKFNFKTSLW
T1 sequence (O95271 1023-1327): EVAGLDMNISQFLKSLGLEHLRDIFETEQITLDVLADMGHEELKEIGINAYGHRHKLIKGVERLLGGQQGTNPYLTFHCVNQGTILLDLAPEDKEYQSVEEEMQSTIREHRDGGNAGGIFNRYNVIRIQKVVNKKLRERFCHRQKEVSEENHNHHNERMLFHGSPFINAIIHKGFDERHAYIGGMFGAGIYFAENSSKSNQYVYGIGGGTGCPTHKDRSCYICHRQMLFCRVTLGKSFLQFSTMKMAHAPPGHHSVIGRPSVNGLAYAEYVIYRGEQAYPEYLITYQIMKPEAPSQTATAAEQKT

Structure (SMILES)	EC50 (Tankyrase) [M]	IC50 [1] [nM]	IC50 (His-tagged Parp-1) [nM]
Cc1cccc(N(C)C(=O)N2CCC(C(=O)c3ccccc3)CC2)c1 [Compound A1, 4-benzoyl-piperidine-1-carboxylic acid methyl-m-tolyl-amide]	3e-07 to 3e-06	< 300	3000 to 50000
Cc1ccc(N(C)C(=O)N2CCC(C(=O)c3ccccc3)CC2)cc1 [Compound A2, 4-benzoyl-piperidine-1-carboxylic acid methyl-p-tolyl-amide]	3e-07 to 3e-06	< 300	3000 to 50000
COc1ccc(N(C)C(=O)N2CCC(C(=O)c3ccccc3)CC2)cc1 [Compound A4, 4-benzoyl-piperidine-1-carboxylic acid (4-methoxy-phenyl)-methyl-amide]	3e-07 to 3e-06	< 300	3000 to 50000
COc1ccc(N(C)C(=O)N2CCC(C(=O)c3ccc(C)cc3)CC2)cc1 [Compound A5, 4-(4-methyl-benzoyl)-piperidine-1-carboxylic acid (4-methoxy-phenyl)-methylamide]	< 3e-07	< 300	3000 to 50000
COc1ccc(C(=O)C2CCN(C(=O)N(C)c3ccc(OC)cc3)CC2)cc1 [Compound A6, 4-(4-methoxy-benzoyl)-piperidine-1-carboxylic acid (4-methoxy-phenyl)methyl-amide]	< 3e-07	< 300	3000 to 50000
COc1ccc(N(C)C(=O)N2CCC(C(=O)c3cccc(F)c3)CC2)cc1 [Compound A7, 4-(3-fluoro-benzoyl)-piperidine-1-carboxylic acid (4-methoxy-phenyl)-methylamide]	3e-07 to 3e-06	< 300	3000 to 50000
COc1ccc(N(C)C(=O)N2CCC(C(=O)c3ccc(F)cc3)CC2)cc1 [Compound A8, 4-(4-fluoro-benzoyl)-piperidine-1-carboxylic acid (4-methoxy-phenyl)-methylamide]	< 3e-07	< 300	3000 to 50000
CN(C(=O)N1CCC(C(=O)c2ccccc2)CC1)c1ccc(F)cc1 [Compound A13, 4-benzoyl-piperidine-1-carboxylic acid (4-fluoro-phenyl)-methyl-amide]	3e-07 to 3e-06	< 300	3000 to 50000
CCN(C(=O)N1CCC(C(=O)c2ccccc2)CC1)c1ccc(OC)cc1 [Compound A14, 4-benzoyl-piperidine-1-carboxylic acid ethyl-(4-methoxy-phenyl)-amide]	< 3e-07	< 300	3000 to 50000
COc1ccc(N(CCO)C(=O)N2CCC(C(=O)c3ccccc3)CC2)cc1 [Compound A15, 4-benzoyl-piperidine-1-carboxylic acid (2-hydroxy-ethyl)-(4-methoxy-phenyl)amide]	3e-07 to 3e-06	< 300	3000 to 50000
O=C(c1ccccc1)C1CCN(C(=O)N2CCc3ccccc32)CC1 [Compound A16, (4-benzoyl-piperidin-1-yl)-(2,3-dihydro-indol-1-yl)-methanone]	3e-06 to 5e-05	< 300	3000 to 50000
Cc1ccc(C(=O)C2CCN(C(=O)N3CCc4ccccc43)CC2)cc1 [Compound A17, (2,3-dihydro-indol-1-yl)-[4-(4-methyl-benzoyl)-piperidin-1-yl]-methanone]	3e-07 to 3e-06	< 300	3000 to 50000
COc1ccc(C(=O)C2CCN(C(=O)N3CCc4ccccc43)CC2)cc1 [Compound A18, (2,3-dihydro-indol-1-yl)-[4-(4-methoxy-benzoyl)-piperidin-1-yl]-methanone]	3e-07 to 3e-06	< 300	3000 to 50000
CCN(C(=O)N1CCC(C(=O)c2ccc(OC)c(C)c2)CC1)c1ccc(OC)cc1 [Compound A24, 4-(4-methoxy-3-methyl-benzoyl)-piperidine-1-carboxylic acid ethyl-(4-methoxy-phenyl)-amide]	< 3e-07	< 300	3000 to 50000
COc1ccc(N(C)C(=O)N2CCC(C(=O)c3cccc(C)c3)CC2)cc1 [Compound A25, 4-(3-methyl-benzoyl)-piperidine-1-carboxylic acid (4-methoxy-phenyl)methyl-amide]	< 3e-07	< 300	3000 to 50000
CCN(C(=O)N1CCC(C(=O)c2cccc(C)c2)CC1)c1ccc(OC)cc1 [Compound A26, 4-(3-methyl-benzoyl)-piperidine-1-carboxylic acid ethyl-(4-methoxy-phenyl)amide]	< 3e-07	< 300	3000 to 50000
COc1ccc(N(C)C(=O)N2CCC(C(=O)c3cccc(OC)c3)CC2)cc1 [Compound A27, 4-(3-methoxy-benzoyl)-piperidine-1-carboxylic acid (4-methoxy-phenyl)methyl-amide]	< 3e-07	< 300	3000 to 50000
CCN(C(=O)N1CCC(C(=O)c2cccc(OC)c2)CC1)c1ccc(OC)cc1 [Compound A28, 4-(3-methoxy-benzoyl)-piperidine-1-carboxylic acid ethyl-(4-methoxy-phenyl)amide]	< 3e-07	< 300	3000 to 50000
COc1ccc(N(C)C(=O)N2CCC(C(=O)c3ccc(OC)c(F)c3)CC2)cc1 [Compound A29, 4-(3-fluoro-4-methoxy-benzoyl)-piperidine-1-carboxylic acid (4-methoxy-phenyl)-methyl-amide]	< 3e-07	< 300	3000 to 50000
CN(C(=O)N1CCC(C(=O)c2ccc(NS(C)(=O)=O)cc2)CC1)c1ccccc1 [Compound A38, 4-(4-methanesulfonylamino-benzoyl)-piperidine-1-carboxylic acid methyl-phenyl-amide]	3e-07 to 3e-06	< 300	3000 to 50000
CCOC(=O)CN(C(=O)N1CCC(C(=O)c2ccc(OC)cc2)CC1)c1ccccc1 [Compound A40, {[4-(4-methoxy-benzoyl)-piperidine-1-carbonyl]-phenyl-amino}-acetic acid ethyl ester]	< 3e-07	< 300	3000 to 50000
